Results published in patent US8853424B2 (Japan Science and Technology Agency, priority 2008, dated 2014).

Assays:
transglutaminase (TGase) = assay: Measurement of TG (TGase inhibitory activity, monodansyl cadaverine / N,N-dimethylcasein fluorescence, FDSS 3000); type: biochemical
In short: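 Compound (1 μL of 10 mM stock) added to 0.1 mL reaction: 100 mM HEPES-NaOH pH 7.5, 1 mM CaCl2, 20 μM monodansyl cadaverine, 0.05 mg/mL N,N-dimethylcasein, 5 μg/mL TGase. Rate of fluorescence change at 340 nm measured; DMSO control set to 100; TG50 is the concentration halving activity.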

[1] = test system: Truncated N-terminal huntington 150 Q-EGFP-Neuron 2a cells; assay: Measurement of x-Fold (polyglutamine aggregation inhibitory activity); type: cell-based
Protocol: In the present invention, the polyglutamine aggregation inhibitory activity (x-Fold) can be measured, for example, by the method described in the Example.
The number of the aggregated cells, and the total number of cells were counted by Array Scan V T1 (manufactured by Cellomics, Pittuburg, USA), and the ratio of the aggregated cells to the total number of cells was determined (x-Fold). […]

[2] = TGase activity with compound (10 mM, 1 μL in 0.1 ml enzyme reaction solution), DMSO control taken as 100
[3] = TGase inhibitory activity value, Table 1
[4] = polyglutamine aggregation inhibitory activity, Table 1
[5] = ratio of aggregated cells to total number of cells, compound 20 μM, 20 hr, almost 1 without compound, smaller = stronger inhibition
[6] = TGase inhibitory activity measurement, unit not given
[7] = polyglutamine aggregation, Truncated N-terminal huntington 150 Q-EGFP-Neuron 2a cells

TGase activity remaining (% of DMSO control = 100) (transglutaminase (TGase); [2])	TGase activity remaining (% of DMSO control = 100) (transglutaminase (TGase); [3])	TGase activity remaining (% of DMSO control = 100) (transglutaminase (TGase); [6])	TGase activity remaining (% of DMSO control = 100) (transglutaminase (TGase); TGase inhibitory activity value, Table 1, listed as 6001)	Compound	x-Fold [1, 4]	x-Fold [1, 5]	x-Fold [1, 7]	x-Fold ([1]; polyglutamine aggregation inhibitory activity, Table 1, listed as 6001)
91	91			Cc1cc(B(O)c2cccc(COCc3ccccc3B(O)c3ccc(Cl)c(C)c3)c2)ccc1Cl [Example 344, (3-(4-chloro-3-methylphenylhydroxyboryl)benzyl)(2-(4-chloro-3-methylphenylhydroxyboryl)benzyl)ether]	0.93	0.93		
60	60			NCCOB(c1ccccc1)c1ccc(B(OCCN)c2ccccc2)o1 [Example 384, bis(2,5-(phenylaminoethoxyboryl))furan]	1.05	1.05		
99	99			CCC(N)COB(c1ccccc1)c1ccccc1 (stereo not shown) [Example 228, diphenyl 2-aminobutylborinate]	0.98	0.98		
102		102		CN(C)CCOB(c1ccc(Oc2ccc(B(OCCN(C)C)c3cccc4ccccc34)cc2)cc1)c1cccc2ccccc12 [Example 442, bis(4,4′-(naphthyldimethylaminoethoxyboryl)phenyl)ether]	0.92	0.58	0.58	
68	68			NCCOB(c1ccccc1)c1ccccc1COCc1ccccc1B(OCCN)c1ccccc1 [Example 148, bis(2,2′-(phenyl-2-aminoethoxyboryl)benzyl)ether]	1.00	1.00		
47	47			NC(COB(c1ccccc1)c1ccc(COCc2ccc(B(OCC(N)Cc3ccccc3)c3ccccc3)cc2)cc1)Cc1ccccc1 (stereo not shown) [Example 205, bis(4,4′-(phenyl 2-amino-2-benzylethoxyboryl)benzyl)ether]	0.80	0.80		
115	115			Cc1cc(B(OCCN)c2ccc(COCc3ccc(B(OCCN)c4ccc(Cl)c(C)c4)cc3)cc2)ccc1Cl [Example 339]	0.91	0.91		
96				FC(F)(F)c1ccc(C(OB(c2ccccc2)c2ccc(COCc3ccc(B(OC(c4ccc(C(F)(F)F)cc4)c4ccccn4)c4ccccc4)cc3)cc2)c2ccccn2)cc1 (stereo not shown) [Example 149, 4,4′-di((phenyl 1-(pyridin-2-yl)-1-trifluoromethylphenylmethoxyboryl)benzyl)ether]		0.99		
97			97	OB(c1ccc(C(F)(F)F)cc1)c1ccc(C(F)(F)F)cc1 [Example 75, bis(4-trifluoromethylphenyl)borinic acid]		0.88		0.88
98				Cc1ccc(Cl)cc1B(O)c1cc(Cl)ccc1C [Example 171, di(3-chloro-6-methylphenyl)borinic acid]		0.71		
91	91			Nc1ccccc1C(=O)OB(c1ccccc1)c1ccccc1 [Example 219, diphenyl(2-aminophenyl carboxylate-O,N)borane]	0.88	0.88		
28	28			NCCSB(c1ccc(Cl)cc1F)c1ccc(Cl)cc1F [Example 1, 2-aminoethylthio bis(4-chloro-2-fluorophenyl)borane]	0.95	0.95		
33	33			NCCSB(c1ccccc1)c1ccccc1 [Example 151, 2-aminoethylthiodiphenylborane]	0.87	0.87		
98				Cc1ccc(Cl)cc1B(OCC1CCCCN1)c1cc(Cl)ccc1C (stereo not shown) [Example 242, di(5-chloro-2-methylphenyl) 2-piperidinomethylborinate]		1.17		
108	108			Cc1ccc(NCCOBc2ccc(COCc3ccc(BOCCNc4ccc(C)cc4)cc3)cc2)cc1 [Example 362, bis(4-(4-methylphenylaminoethoxyboryl)benzyl)ether]	1.08	1.08		
108		108		NCCOB(c1ccccc1)c1ccc2sc3ccc(B(OCCN)c4ccccc4)cc3c2c1 [Example 408, 2,8-di(phenylaminoethoxyboryl)dibenzothiophene]		0.92	0.92	
100				FC(F)(F)c1ccc(B(OCc2ccccn2)c2ccc(C(F)(F)F)cc2)cc1 [Example 155, di(trifluoromethylphenyl) 2-pyridinomethylborinate]		1.02		
97	97			OB(O)c1ccc(F)c(Cl)c1 [Example 145, (3-chloro-4-fluorophenyl)boronic acid]	0.91	0.91		
92		92		Cc1ccc(B(OC(=O)C(N)CC(N)=O)c2ccc(COCc3ccc(B(OC(=O)C(N)CC(N)=O)c4ccc(C)cc4)cc3)cc2)cc1 (stereo not shown) [Example 449, bis(4,4′-(tolylasparagineboryl)benzyl)ether]		0.89	0.89	
101				NCC(=O)OB(c1ccccc1)c1ccc(Oc2ccc(B(OC(=O)CN)c3ccccc3)cc2)cc1 [Example 129, di((phenylglycine-O,N boryl)phenyl)ether]		0.78		
33		33		OB(c1ccc(Oc2ccc(B(O)c3cccc4ccccc34)cc2)cc1)c1cccc2ccccc12 [Example 439, bis(4,4′-(naphthylhydroxyboryl)phenyl)ether]		0.54	0.54	
93	93			Fc1cc(B(OCc2ccccn2)c2cc(F)c(F)c(F)c2)cc(F)c1F [Example 90, 2-pyridylmethyl bis(3,4,5-trifluorophenyl)borinate]	0.81	0.81		
101	101			NCC(=O)OB(c1ccccc1)c1ccccc1 [Example 254, diphenyl(glycinate-O,N)borane]	0.95	0.95		
76	76			NCCOB(c1ccccc1)c1cccc(-c2cccc(B(OCCN)c3ccccc3)n2)n1 [Example 382, 6,6′-(phenylaminoethoxyboryl)-2,2′-dipyridyl]	0.80	0.80		
112	112			OB(CCCCB(O)c1ccccc1)c1ccccc1 [Example 113, 1,4-bis(hydroxyphenylboryl)butane]	0.99	0.99		
28	28			diphenyl(FITC-2,6-diaminocapronate-O,N)borane [Example 177]	1.00	1.00		
6	6			FITC aminoethylaminoethyl diphenylborinate [Example 161]	0.99	0.99		
2	2			Nc1ccccc1SB(c1ccccc1)c1ccccc1 [Example 150, diphenyl-2-aminophenylthioborane]	0	0		
92	92			N#Cc1ccc(B(OCCNCc2ccccc2)c2ccc(C#N)cc2)cc1 [Example 105, benzylaminoethyl bis(4-cyanophenyl)borinate]	1.05	1.05		

Compound	TGase activity remaining (% of DMSO control = 100) (transglutaminase (TGase); [2])	TGase activity remaining (% of DMSO control = 100) (transglutaminase (TGase); [3])	TGase activity remaining (% of DMSO control = 100) (transglutaminase (TGase); [6])	TGase activity remaining (% of DMSO control = 100) (transglutaminase (TGase); TGase inhibitory activity value, Table 1, listed as 6001)	x-Fold [1, 4]	x-Fold [1, 5]	x-Fold [1, 7]	x-Fold ([1]; polyglutamine aggregation inhibitory activity, Table 1, listed as 6001)
OB(c1ccc(COCc2ccc(B(O)c3ccc(C(F)(F)F)cc3)cc2)cc1)c1ccc(C(F)(F)F)cc1 [Example 143, bis(4-trifluoromethylphenylhydroxyboryl 4-benzyl)ether]	118	118			0.90	0.90		
OB(c1ccccc1)c1ccc(-c2ccc(B(O)c3ccccc3)cc2)cc1 [Example 140, 4,4′-phenylhydroxyboryl 4-biphenyl]	−72	−72			0.85	0.85		
